Data published in article PMC7066191, “Exploiting loss of heterozygosity for allele-selective colorectal cancer chemotherapy” (Nature Communications, 2020).

What was measured:
Assay in all cases: biochemical
Design in all cases: scanMAX competition binding; kinase recovered on immobilized ligand quantified by qPCR, per cent of control
Settings in all cases: read-out: APA (POC)
RPS6KA6_Dom1 = molecular target: T1, RPS6KA6_Dom1 (Homo sapiens, UniProt Q9UK32)
T1 construct: gene RPS6KA6; Kin.Dom.1 N-terminal
Method: (§1) The binding affinities of APA and NAPA were evaluated in the scanMAX^sm Kinase Assay Panel (DiscoverX) at a final concentration of 10 µM. The compounds were tested for steric or allosteric binding to kinases in solution. The kinase was captured from the solution through an immobilized kinase-specific ligand and the kinase recovery was quantified. The amount of recovered kinase in the presence or absence of APA or NAPA was measured by quantitative PCR compared with the kinase capture in absence of the compound. Any compound reducing the binding affinity of a kinase to the respective immobilized ligand was scored as a potential hit, and the binding affinity of the compound toward a kinase is interpreted as the difference between the kinase recovery in the absence and presence of the compound. The inhibitory binding constants (Kd) of APA and NAPA to AURKA were evaluated in a KdELECT Kinase Assay (DiscoverX). […] Data acquisition followed the same methodology as for the scanMAX^sm Kinase Assay Panel. 6 Supplementary Figure 4. Kinome inhibition profiles of APA and its NAT2 metabolite NAPA identifies preferential APA kinase targets and differential binding to AURKA a The human kinome was assessed for binding affinity to APA and NAPA at 10 µM concentration (468 kinases in the scanMAX Kinase Assay Panel, DiscoverX). The family stratification of kinases is shown as a cladogram. Circles visualize the binding affinity of NAPA and APA towards each kinase with a higher intensity of blue corresponding to a higher binding affinity. […] One single data point from one experiment at a concentration 18.5 µM of APA was excluded as an outlier. c Thermal shift assay for human recombinant AURKA in the presence of APA and the selective inhibitor S1451. Melting temperatures were obtained by calculating the first derivative of the tryptophan fluorescence ratio at 350 nm and 330 nm and are shown for AURKA in the presence of S1451 (blue) and APA (yellow). Structural similarities between APA and kinase inhibitors[27] prompted investigation of protein kinases as mediators of APA toxicity. […] To enrich for kinase interactions that could explain the preferential killing of slow NAT2 cells, we compared the binding affinity of each kinase with APA and NAPA, selected 44 targets with preferential binding to APA and excluded kinases non-essential for cell survival and those not expressed in CRC cells (Supplementary Fig. 4A, Supplementary Table 4). […] The growth inhibition of RKO and DLD-1 following siRNA-mediated AURKA knockdown (Figs. 3c, d) reflected the relative efficiency of protein downregulation (Supplementary Fig. 5C, D). […] (Supplementary Fig. 4C). AURKA regulates cell cycle progression through association with other centrosome and spindle-associated proteins. Its activation requires auto-phosphorylation at Thr288 and ensures spindle pole integrity, centrosome duplication as well as adequate chromosomal alignment and segregation, while its inhibition leads to multipolar spindles with acentrosomal poles[28],[31]. […] S1451 reduced the fraction of pAURKA levels by >90% regardless of NAT2 expression (Fig. 3f and Su

FLT4 = FLT4 (Homo sapiens, UniProt P35916)
Method: as §1

CAMK2A = CAMK2A (Homo sapiens, UniProt Q9UQM7)
Method: as §1

RPS6KA1_Dom1 = molecular target: T2, RPS6KA1_Dom1 (Homo sapiens, UniProt Q15418)
T2 construct: gene RPS6KA1; Kin.Dom.1 N-terminal
Method: as §1

KDR = KDR (Homo sapiens, UniProt P35968)
Method: as §1

JAK3_JH1 = molecular target: T3, JAK3_JH1 (Homo sapiens, UniProt P52333)
T3 construct: gene JAK3; JH1 domain
Method: as §1

HIPK4 = HIPK4 (Homo sapiens, UniProt Q8NE63)
Method: as §1

NTRK3 = NTRK3 (Homo sapiens, UniProt Q16288)
Method: as §1

RIOK3 = RIOK3 (Homo sapiens, UniProt O14730)
Method: as §1

DYRK1A = DYRK1A (Homo sapiens, UniProt Q13627)
Method: as §1

FLT1 = FLT1 (Homo sapiens, UniProt P17948)
Method: as §1

HIPK2 = HIPK2 (Homo sapiens, UniProt Q9H2X6)
Method: as §1

HIPK3 = HIPK3 (Homo sapiens, UniProt Q9H422)
Method: as §1

PDGFRA = PDGFRA (Homo sapiens, UniProt P16234)
Method: as §1

MKNK2 = MKNK2 (Homo sapiens, UniProt Q9HBH9)
Method: as §1

Sequence of PDGFRA (P16234 whole entry): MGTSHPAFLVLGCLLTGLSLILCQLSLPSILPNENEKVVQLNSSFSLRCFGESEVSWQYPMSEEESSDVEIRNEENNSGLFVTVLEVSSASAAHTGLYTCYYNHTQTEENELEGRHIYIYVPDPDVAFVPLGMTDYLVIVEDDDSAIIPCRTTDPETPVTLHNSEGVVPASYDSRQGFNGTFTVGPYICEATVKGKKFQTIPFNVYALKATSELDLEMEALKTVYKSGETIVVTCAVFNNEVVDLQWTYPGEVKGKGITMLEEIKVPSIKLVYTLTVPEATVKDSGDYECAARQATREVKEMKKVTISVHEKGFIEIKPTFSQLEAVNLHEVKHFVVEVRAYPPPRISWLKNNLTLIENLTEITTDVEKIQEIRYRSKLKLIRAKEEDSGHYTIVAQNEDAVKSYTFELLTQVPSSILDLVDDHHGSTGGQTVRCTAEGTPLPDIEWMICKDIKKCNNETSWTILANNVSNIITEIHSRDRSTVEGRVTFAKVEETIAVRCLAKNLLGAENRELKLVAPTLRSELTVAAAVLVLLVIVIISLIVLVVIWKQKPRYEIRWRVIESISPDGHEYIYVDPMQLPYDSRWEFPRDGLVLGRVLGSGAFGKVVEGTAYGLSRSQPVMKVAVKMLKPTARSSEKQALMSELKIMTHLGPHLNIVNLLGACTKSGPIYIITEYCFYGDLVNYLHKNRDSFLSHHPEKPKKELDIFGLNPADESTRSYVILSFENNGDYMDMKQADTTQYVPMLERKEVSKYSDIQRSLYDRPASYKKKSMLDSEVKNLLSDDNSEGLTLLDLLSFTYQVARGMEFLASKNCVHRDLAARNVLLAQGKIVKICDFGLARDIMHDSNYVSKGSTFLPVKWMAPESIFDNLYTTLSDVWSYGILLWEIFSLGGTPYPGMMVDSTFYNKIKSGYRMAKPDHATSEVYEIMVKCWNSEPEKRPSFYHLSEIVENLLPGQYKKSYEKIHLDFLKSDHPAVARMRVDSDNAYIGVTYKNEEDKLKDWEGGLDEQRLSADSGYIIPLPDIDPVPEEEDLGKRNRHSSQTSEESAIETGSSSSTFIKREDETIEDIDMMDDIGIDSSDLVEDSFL
Sequence of KDR (P35968 whole entry): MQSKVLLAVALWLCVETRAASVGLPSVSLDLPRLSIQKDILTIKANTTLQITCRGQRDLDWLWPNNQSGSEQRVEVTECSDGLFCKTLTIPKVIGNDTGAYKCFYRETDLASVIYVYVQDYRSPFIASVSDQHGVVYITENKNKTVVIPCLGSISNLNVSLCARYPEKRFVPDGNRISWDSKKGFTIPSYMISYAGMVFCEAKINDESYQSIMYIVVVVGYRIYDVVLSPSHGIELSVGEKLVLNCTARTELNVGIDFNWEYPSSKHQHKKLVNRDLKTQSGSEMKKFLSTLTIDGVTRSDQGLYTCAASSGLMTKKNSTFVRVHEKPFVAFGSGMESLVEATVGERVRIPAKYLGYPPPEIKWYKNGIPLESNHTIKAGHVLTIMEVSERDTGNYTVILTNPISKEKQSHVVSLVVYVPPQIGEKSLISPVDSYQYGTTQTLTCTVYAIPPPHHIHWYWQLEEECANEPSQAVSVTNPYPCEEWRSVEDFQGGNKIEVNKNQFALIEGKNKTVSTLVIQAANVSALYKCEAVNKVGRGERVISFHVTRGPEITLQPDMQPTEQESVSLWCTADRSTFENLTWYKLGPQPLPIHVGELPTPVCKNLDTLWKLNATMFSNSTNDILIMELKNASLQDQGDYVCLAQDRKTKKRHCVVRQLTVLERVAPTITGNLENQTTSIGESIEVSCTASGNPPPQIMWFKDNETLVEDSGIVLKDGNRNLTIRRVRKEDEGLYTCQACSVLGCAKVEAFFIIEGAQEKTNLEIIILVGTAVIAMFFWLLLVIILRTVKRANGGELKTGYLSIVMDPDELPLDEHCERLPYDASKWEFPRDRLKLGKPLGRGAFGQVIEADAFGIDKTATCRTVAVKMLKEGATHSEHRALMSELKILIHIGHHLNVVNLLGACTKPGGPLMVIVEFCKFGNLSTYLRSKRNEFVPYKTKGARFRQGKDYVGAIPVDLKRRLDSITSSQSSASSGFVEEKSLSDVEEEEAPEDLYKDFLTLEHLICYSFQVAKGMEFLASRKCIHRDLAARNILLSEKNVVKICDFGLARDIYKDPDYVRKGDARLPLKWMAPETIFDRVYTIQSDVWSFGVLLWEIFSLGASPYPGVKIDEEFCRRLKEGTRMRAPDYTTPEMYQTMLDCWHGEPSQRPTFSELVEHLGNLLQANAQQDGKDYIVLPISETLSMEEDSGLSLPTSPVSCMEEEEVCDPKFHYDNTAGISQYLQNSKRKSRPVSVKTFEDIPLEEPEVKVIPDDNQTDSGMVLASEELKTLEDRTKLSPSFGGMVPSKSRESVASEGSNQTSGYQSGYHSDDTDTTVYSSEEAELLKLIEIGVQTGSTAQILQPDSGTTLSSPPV
Sequence of CAMK2A (Q9UQM7 whole entry): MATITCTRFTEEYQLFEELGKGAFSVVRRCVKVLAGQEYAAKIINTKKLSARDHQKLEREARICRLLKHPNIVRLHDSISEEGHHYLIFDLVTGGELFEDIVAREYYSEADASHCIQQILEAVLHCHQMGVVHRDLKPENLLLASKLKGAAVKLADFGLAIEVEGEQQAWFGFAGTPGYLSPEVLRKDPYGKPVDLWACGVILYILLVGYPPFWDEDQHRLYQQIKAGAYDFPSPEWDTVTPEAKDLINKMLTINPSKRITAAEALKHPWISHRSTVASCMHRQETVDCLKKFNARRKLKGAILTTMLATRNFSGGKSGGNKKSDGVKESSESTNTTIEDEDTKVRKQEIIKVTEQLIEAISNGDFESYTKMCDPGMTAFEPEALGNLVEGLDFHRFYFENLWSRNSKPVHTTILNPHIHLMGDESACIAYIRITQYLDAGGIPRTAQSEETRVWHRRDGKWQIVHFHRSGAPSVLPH
Sequence of RIOK3 (O14730 whole entry): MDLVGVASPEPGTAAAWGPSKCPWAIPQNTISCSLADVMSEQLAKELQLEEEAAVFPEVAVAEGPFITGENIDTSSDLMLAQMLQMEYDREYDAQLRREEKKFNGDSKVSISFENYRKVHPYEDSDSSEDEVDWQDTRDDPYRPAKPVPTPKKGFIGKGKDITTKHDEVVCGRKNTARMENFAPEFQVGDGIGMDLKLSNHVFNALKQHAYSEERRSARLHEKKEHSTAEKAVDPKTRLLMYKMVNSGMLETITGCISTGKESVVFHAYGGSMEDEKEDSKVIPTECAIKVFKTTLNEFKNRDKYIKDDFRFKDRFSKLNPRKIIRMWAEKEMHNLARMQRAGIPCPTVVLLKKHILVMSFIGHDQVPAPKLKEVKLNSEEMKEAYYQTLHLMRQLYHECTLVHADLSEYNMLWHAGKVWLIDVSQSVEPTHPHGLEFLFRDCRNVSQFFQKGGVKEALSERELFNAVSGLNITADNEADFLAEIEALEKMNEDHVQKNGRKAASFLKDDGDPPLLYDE
Sequence of FLT4 (P35916 whole entry): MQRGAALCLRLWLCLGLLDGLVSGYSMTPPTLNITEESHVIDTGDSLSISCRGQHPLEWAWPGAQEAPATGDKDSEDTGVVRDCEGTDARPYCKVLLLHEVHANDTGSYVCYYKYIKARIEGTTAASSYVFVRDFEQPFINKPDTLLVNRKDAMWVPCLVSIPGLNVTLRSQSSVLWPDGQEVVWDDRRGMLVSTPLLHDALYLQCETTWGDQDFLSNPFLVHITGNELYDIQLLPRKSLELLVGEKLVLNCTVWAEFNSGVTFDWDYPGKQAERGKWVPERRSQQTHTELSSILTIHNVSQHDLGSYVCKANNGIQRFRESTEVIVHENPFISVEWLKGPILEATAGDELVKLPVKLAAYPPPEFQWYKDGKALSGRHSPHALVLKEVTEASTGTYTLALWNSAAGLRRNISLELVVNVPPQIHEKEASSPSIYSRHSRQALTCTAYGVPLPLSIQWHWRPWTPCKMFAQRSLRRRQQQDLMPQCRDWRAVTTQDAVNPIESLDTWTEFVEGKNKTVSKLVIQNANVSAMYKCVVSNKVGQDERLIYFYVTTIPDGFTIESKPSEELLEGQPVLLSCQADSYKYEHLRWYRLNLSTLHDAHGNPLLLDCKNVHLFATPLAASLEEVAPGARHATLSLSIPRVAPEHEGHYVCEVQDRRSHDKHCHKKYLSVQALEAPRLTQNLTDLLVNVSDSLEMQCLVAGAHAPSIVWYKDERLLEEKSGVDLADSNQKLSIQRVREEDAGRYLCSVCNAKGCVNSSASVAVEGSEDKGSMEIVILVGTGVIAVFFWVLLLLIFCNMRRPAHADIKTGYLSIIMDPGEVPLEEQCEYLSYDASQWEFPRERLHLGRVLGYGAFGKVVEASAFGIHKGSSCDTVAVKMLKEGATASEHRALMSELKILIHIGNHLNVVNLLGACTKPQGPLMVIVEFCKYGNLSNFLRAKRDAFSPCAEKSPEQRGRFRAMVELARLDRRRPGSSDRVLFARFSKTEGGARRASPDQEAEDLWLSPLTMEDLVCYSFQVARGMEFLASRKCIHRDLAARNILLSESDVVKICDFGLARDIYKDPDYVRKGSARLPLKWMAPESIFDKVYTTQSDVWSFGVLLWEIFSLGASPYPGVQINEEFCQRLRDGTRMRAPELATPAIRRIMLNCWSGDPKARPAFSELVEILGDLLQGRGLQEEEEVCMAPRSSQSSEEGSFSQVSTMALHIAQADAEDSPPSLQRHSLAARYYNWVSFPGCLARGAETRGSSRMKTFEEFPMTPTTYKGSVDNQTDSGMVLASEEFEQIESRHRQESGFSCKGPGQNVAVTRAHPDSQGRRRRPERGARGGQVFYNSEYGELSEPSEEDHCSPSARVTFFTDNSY

COc1cc(Nc2cncc(-c3ccc(N)cc3)n2)cc(OC)c1OC [APA, 6-(4-aminophenyl)-N-(3,4,5-trimethoxyphenyl)pyrazin-2-amine] was tested, and the remaining binding at 10 µM (RPS6KA6_Dom1) was 58%, the remaining binding at 10 µM (FLT4) was 35% and the remaining binding at 10 µM (CAMK2A) was 59%. It also gave a remaining binding at 10 µM (RPS6KA1_Dom1) of 56%, a remaining binding at 10 µM (KDR) of 7.1% and a remaining binding at 10 µM (JAK3_JH1) of 19%. For the same molecule, the remaining binding at 10 µM (HIPK4) was 10%, the remaining binding at 10 µM (NTRK3) was 11% and the remaining binding at 10 µM (RIOK3) was 21%. For the same molecule, the remaining binding at 10 µM (DYRK1A) was 7.8%, the remaining binding at 10 µM (FLT1) was 36% and the remaining binding at 10 µM (HIPK2) was 22%. For the same molecule, the remaining binding at 10 µM (HIPK3) was 42%, the remaining binding at 10 µM (PDGFRA) was 3.4% and the remaining binding at 10 µM (MKNK2) was 26%.
